Assay results: patent US20040156869A1, “2-substituted quinazolin-4-ylamine analogues” (Neurogen Corporation, priority 2002, published 2004)

Each molecule was assayed against human capsaicin receptor (VR1) (Homo sapiens, UniProt Q8NER1) (assay: Capsaicin receptor binding assay ([3H]RTX competition, VR1-transfected HEK293 membranes)).
Chain of human capsaicin receptor (VR1) (Q8NER1 whole entry): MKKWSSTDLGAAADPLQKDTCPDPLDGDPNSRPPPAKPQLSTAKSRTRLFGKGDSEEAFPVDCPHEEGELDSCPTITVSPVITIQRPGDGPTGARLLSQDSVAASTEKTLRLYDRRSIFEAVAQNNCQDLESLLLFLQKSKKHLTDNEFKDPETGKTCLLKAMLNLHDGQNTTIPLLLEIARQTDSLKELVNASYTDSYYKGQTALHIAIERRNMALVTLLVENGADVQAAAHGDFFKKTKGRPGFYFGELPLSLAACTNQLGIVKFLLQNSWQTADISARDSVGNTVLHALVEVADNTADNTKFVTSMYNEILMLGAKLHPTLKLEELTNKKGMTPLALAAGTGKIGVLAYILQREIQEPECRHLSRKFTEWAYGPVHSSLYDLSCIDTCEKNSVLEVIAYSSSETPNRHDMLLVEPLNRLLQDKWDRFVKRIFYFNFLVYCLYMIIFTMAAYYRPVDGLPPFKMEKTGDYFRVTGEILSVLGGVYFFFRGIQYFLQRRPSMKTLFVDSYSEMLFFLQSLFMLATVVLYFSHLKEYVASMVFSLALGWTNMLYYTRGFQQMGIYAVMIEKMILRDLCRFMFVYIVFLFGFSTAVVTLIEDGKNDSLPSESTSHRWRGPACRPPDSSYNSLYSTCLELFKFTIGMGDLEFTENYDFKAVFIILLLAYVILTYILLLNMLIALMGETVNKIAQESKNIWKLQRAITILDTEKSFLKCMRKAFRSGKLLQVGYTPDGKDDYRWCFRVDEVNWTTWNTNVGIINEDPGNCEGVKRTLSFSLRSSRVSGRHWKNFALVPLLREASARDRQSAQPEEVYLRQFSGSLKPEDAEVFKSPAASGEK

Ki, < 1 µM:
O=C(O)CNC(=O)c1nc(Nc2ccc(C(F)(F)F)cc2)c2ccc(-c3ncccc3C(F)(F)F)nc2n1 [Compound 764, {[4-(4-Trifluoromethyl-phenylamino)-7-(3-trifluoromethyl-pyridrn-2-yl)-pyrido[2,3-d]pyrimidine-2-carbonyl]-amino}-acetic acid]
O=C(O)CCNC(=O)c1nc(Nc2ccc(C(F)(F)F)cc2)c2ccc(-c3ncccc3C(F)(F)F)nc2n1 [Compound 765, 3-{[4-(4-Trifluoromethyl-phenylamino)-7-(3-trifluoromethyl-pyridin-2-yl)-pyrido[2,3-d]pyrimidine-2-carbonyl]-amino}-propionic acid]
O=C(O)CCCNC(=O)c1nc(Nc2ccc(C(F)(F)F)cc2)c2ccc(-c3ncccc3C(F)(F)F)nc2n1 [Compound 766, 4-{[4-(4-Trifluoromethyl-phenylamino)-7-(3-trifluoromethyl-pyridin-2-yl)-pyrido[2,3-d]pyrimidine-2-carbonyl]-amino}-butyric acid]
O=C(O)C1CCN(C(=O)c2nc(Nc3ccc(C(F)(F)F)cc3)c3ccc(-c4ncccc4C(F)(F)F)nc3n2)CC1 [Compound 767, 1-[4-(4-Trifluoromethyl-phenylamino)-7-(3-trifluoromethyl-pyridin-2-yl)-pyrido[2,3-d]pyrimidine-2-carbonyl]-piperidine-4-carboxylic acid]
O=C(O)[C@@H]1CCCN1C(=O)c1nc(Nc2ccc(C(F)(F)F)cc2)c2ccc(-c3ncccc3C(F)(F)F)nc2n1 [Compound 768, (S)-1-[4-(4-Trifluoromethyl-phenylamino)-7-(3-trifluoromethyl-pyridin-2-yl)-pyrido[2,3-d]pyrimidine-2-carbonyl]-pyrrolidine-2-carboxylic acid]
CN1CCC(c2nc(Nc3ccc(C(C)(C)C)cc3)c3ccc(-c4ncccc4Cl)nc3n2)CC1 [Compound 769, (4-tert-Butyl-phenyl)-[7-(3-chloro-pyridin-2-yl)-2-(1-methyl-piperidin-4-yl)-pyrido[2,3-d]pyrimidin-4-yl]-amine]
CC(C)c1ccc(Nc2nc(C3CCN(C)CC3)nc3nc(-c4ncccc4Cl)ccc23)cc1 [Compound 770, [7-(3-Chloro-pyridin-2-yl)-2-(1-methyl-piperidin-4-yl)-pyrido[2,3-d]pyrimidin-4-yl]-(4-isopropyl-phenyl)-amine]
CN1CCC(c2nc(Nc3ccc(C(F)(F)F)cc3)c3ccc(-c4ncccc4Cl)nc3n2)CC1 [Compound 771, [7-(3-Chloro-pyridin-2-yl)-2-(1-methyl-piperidin-4-yl)-pyrido[2,3-d]pyrimidin-4-yl]-(4-trifluoromethyl-phenyl)-amine]
C[C@@H]1CN(Cc2cc(Nc3ccc(C(F)(F)F)cc3)c3ccc(-c4ncccc4C(F)(F)F)nc3n2)C[C@H](C)O1 [Compound 773, [2-(2,6-Dimethyl-morpholin-4-ylmethyl)-7-(3-trifluoromethyl-pyridin-2-yl)-[1,8]naphthyridin-4-yl]-(4-trifluoromethyl-phenyl)-amine (cis)]
CC1CCCN1Cc1cc(Nc2ccc(C(F)(F)F)cc2)c2ccc(-c3ncccc3C(F)(F)F)nc2n1 (centres unmarked) [Compound 774, [2-(2-Methyl-pyrrolidin-1-ylmethyl)-7-(3-trifluoromethyl-pyridin-2-yl)-[1,8]naphthyridin-4-yl]-(4-trifluoromethyl-phenyl)-amine]
COCCN(CCOC)Cc1cc(Nc2ccc(C(F)(F)F)cc2)c2ccc(-c3ncccc3C(F)(F)F)nc2n1 [Compound 775, [2-{[Bis-(2-methoxy-ethyl)-amino]-methyl}-7-(3-trifluoromethyl-pyridin-2-yl)-[1,8]naphthyridin-4-yl]-(4-trifluoromethyl-phenyl)-amine]
